This passage reports IC50 and ED50 results from ChEMBL document CHEMBL1124229, “Spiro hydantoin aldose reductase inhibitors” (J Med Chem, 1988).

For test [1], the target named is T1, Aldo-keto reductase family 1 member B1 (Bos taurus, UniProt P16116). The test is described as follows: In vitro inhibition of partially purified calf lens aldose reductase; value ranges from 10E-5 to 10E-6.
The species entered for a further test is Rattus norvegicus. The test is described as follows: Ability to cause 50% reduction in sorbitol levels of sciatic nerve of streptozotocinized rats was determined. The test is classed as functional. The following applies: Rattus norvegicus, Sciatic nerve; read-out: ED50.
Test [2] concerns the target T1, Aldo-keto reductase family 1 member B1. The test is described as follows: Inhibition of partially purified calf lens aldose reductase; value ranges from 10E-4 to 10e-5 M.
Test [3] has the same target. The test is described as follows: In vitro inhibitory activity towards partially purified calf lens aldose reductase; value ranges from 10E-6 - 10E-7.
Test [4] has the same target. The test is described as follows: In vitro inhibition of partially purified calf lens aldose reductase.

The structures appear in SMILES notation.

One may read the IC50 as the midpoint of a concentration-inhibition curve. Higher therefore signals weaker potency. The term ED50 denotes the midpoint of the dose-response relation. In the case of `O=C1NC(=O)C2(CCc3cc4c(cc32)OCO4)N1` (configuration not stated), it took 10 µM to reach half-maximal inhibition in test [1] (IC50). Also, the ED50 in the test listed under Rattus norvegicus is over 5 mg/kg.

For `CC(C)(C)c1ccc2c(c1)C1(CCO2)NC(=O)NC1=O` (configuration not stated), in test [2], the midpoint of inhibition, the IC50, lay at 100 µM.

In test [3], `O=C1NC(=O)C2(CC[S+]([O-])c3ccc(F)cc32)N1` (configuration not stated) came in with an IC50 of 1000 nM. Besides, in the test listed under Rattus norvegicus, the ED50 is over 1.5 mg/kg.

`O=C1NC(=O)C2(CCOc3ccc(Br)cc32)N1` (configuration not stated) registered an IC50 in test [3] of 1000 nM. The ED50 in the test listed under Rattus norvegicus is under 1.5 mg/kg.

As for `CN1CCC2(NC(=O)NC2=O)c2ccccc21` (configuration not stated), in test [2], the IC50 is 100 µM. In the test filed under Rattus norvegicus, the ED50 is over 25 mg/kg.

Regarding `CC(C)(C)c1ccc2c(c1)C1(CCS2)NC(=O)NC1=O` (configuration not stated), it took 100 µM to reach half-maximal inhibition in test [2] (IC50).

For `O=C1NC(=O)C2(CCSc3ccc(Br)cc32)N1` (configuration not stated), the IC50 in test [3] turned out to be 1000 nM. In addition, the ED50 in the test filed under Rattus norvegicus amounted to 2.5 mg/kg.

For `O=C1NC(=O)[C@]2(CCSc3ccc(F)cc32)N1`, half-maximal inhibition in test [1] (IC50) required 10 µM.

In turn, `O=C1NC(=O)C2(CCS(=O)(=O)c3ccccc32)N1` (configuration not stated) returned an IC50 in test [1] of 10 µM. Moreover, the ED50 in the test listed under Rattus norvegicus was 20 mg/kg.

As for `NC(=O)c1ccc2c(c1)C1(CCO2)NC(=O)NC1=O` (configuration not stated), in test [2], the IC50 turned out to be 100 µM. In the test filed under Rattus norvegicus, the ED50 is over 100 mg/kg.

As for `O=C1N=C(O)O[C@@]12CCOc1ccc(Cl)cc12`, the IC50 in test [2] came to 100 µM.

As for `Cc1ccc2c(c1)C1(CCO2)NC(=O)NC1=O` (configuration not stated), the IC50 in test [1] stood at 10 µM. The median effective dose (ED50) in the test filed under Rattus norvegicus stood at 5 mg/kg.

Compound `COc1cc2c(cc1OC)C1(CCC2)NC(=O)NC1=O` (configuration not stated) displayed an IC50 in test [2] of 100 µM. Also, in the test listed under Rattus norvegicus, the median effective dose (ED50) was over 5 mg/kg.

The compound `CS(=O)(=O)c1ccc2c(c1)C1(CCO2)NC(=O)NC1=O` (configuration not stated) displayed an IC50 in test [2] of 100 µM.

As to `O=C1NC(=O)C2(CCSc3ccc(Cl)cc32)N1` (configuration not stated), the midpoint of inhibition in test [3], the IC50, lay at 1000 nM. Moreover, the ED50 in the test filed under Rattus norvegicus came out at 2.5 mg/kg.

The compound `Cc1cc(Cl)cc2c1OCCC2C(=O)O` (configuration not stated) yielded an IC50 in test [1] of 10 µM.

For the compound `COc1ccc2c(c1)C1(CCO2)NC(=O)NC1=O` (configuration not stated), the IC50 in test [1] is 10 µM. Further, the ED50 in the test filed under Rattus norvegicus was over 2.5 mg/kg.

As to `O=C1NC(=O)C2(CCOc3ccc4ccccc4c32)N1` (configuration not stated), it took 10 µM to reach half-maximal inhibition in test [4] (IC50). Besides, in the test listed under Rattus norvegicus, the ED50 was over 1.5 mg/kg.

Turning to `O=C1NC(=O)C2(N1)c1ccccc1CCC2c1ccccc1` (configuration not stated), the IC50 in test [4] is over 100 µM. Besides, the ED50 in the test listed under Rattus norvegicus was over 25 mg/kg.

Turning to `CC1CCc2ccccc2C12NC(=O)NC2=O` (configuration not stated), in test [4], the IC50 was 100 µM. In the test listed under Rattus norvegicus, the ED50 was over 25 mg/kg.

As to `O=C1CC2(CCOc3ccc(Cl)cc32)C(=O)N1` (configuration not stated), the half-maximal inhibitory concentration (IC50) in test [4] was under 100 µM. In addition, the ED50 in the test filed under Rattus norvegicus is over 5 mg/kg.

As for `O=C1NC(=O)C2(CCOc3c2ccc2cccnc32)N1` (configuration not stated), the IC50 in test [4] is 10 µM. Moreover, the ED50 in the test filed under Rattus norvegicus was over 1.5 mg/kg.

On to `O=C1NC(=O)[C@@]2(CCSc3ccc(F)cc32)N1`, for which, in test [4], the half-inhibitory concentration (IC50) was under 0.1 µM. In the test listed under Rattus norvegicus, the ED50 was 0.75 mg/kg.

In test [4], `COc1cccc2c1CCCC21NC(=O)NC1=O` (configuration not stated) displayed an IC50 of 10 µM. Besides, the ED50 in the test listed under Rattus norvegicus is over 25 mg/kg.

Compound `O=C1NC(=O)C2(CCn3c(=O)ccc4cc(Cl)cc2c43)N1` (configuration not stated) registered an IC50 in test [4] of under 0.1 µM. Further, in the test filed under Rattus norvegicus, the ED50 is over 1.5 mg/kg.

For `c1ccc2c(c1)CCC21CCNC1` (configuration not stated), in test [4], the IC50 is over 100 µM. Also, in the test listed under Rattus norvegicus, the ED50 was over 25 mg/kg.

In test [2], `O=C1NC(=O)C2(CCc3ccc(O)cc32)N1` (configuration not stated) came in with an IC50 of 100 µM. Moreover, the ED50 in the test listed under Rattus norvegicus is over 10 mg/kg.

The compound `COc1cc2c(cc1OC)C1(CC2)NC(=O)NC1=O` (configuration not stated) had an IC50 in test [1] of 10 µM. Moreover, in the test filed under Rattus norvegicus, the ED50 was 10 mg/kg.

`O=C1CC2(CCCc3ccccc32)C(=O)N1` (configuration not stated) gave an IC50 in test [4] of over 100 µM. Moreover, the ED50 in the test listed under Rattus norvegicus was determined as 5 mg/kg.

As to `O=C1NC(=O)C2(CCCCC2)N1`, the IC50 in test [4] worked out at 100 µM. Moreover, the ED50 in the test listed under Rattus norvegicus was over 25 mg/kg.

`O=C1NC(=O)C2(CCc3ccc(F)cc32)N1` (configuration not stated) yielded an IC50 in test [2] of 100 µM. Besides, the ED50 in the test listed under Rattus norvegicus came to 5 mg/kg.

On to `O=C1NC(=O)C2(CCOc3ccc(Cl)cc32)C(=O)N1`, for which inhibition in test [2] was half-maximal at 100 µM (IC50). The ED50 in the test listed under Rattus norvegicus was over 10 mg/kg.

`O=C1NCC2(CCOc3ccc(Cl)cc32)N1` (configuration not stated) displayed an IC50 in test [4] of 10 µM. In addition, in the test listed under Rattus norvegicus, the ED50 is over 10 mg/kg.

In turn, `O=C1NC(=O)C(c2ccccc2)(c2ccccc2)N1` [PHENYTOIN] registered an IC50 in test [4] of over 100 µM. The ED50 in the test filed under Rattus norvegicus is over 250 mg/kg.
